Here are results for eight compounds from patent US11998537B2, “Substituted indole dimer compounds” (BRISTOL-MYERS SQUIBB COMPANY, priority 2018, dated 2024).

In general, IC50 refers to the midpoint of a concentration-inhibition curve. A high value points to lower potency.

What all share (format): cell-based
In one assay the target is T1, human TLR7 (Homo sapiens, UniProt Q9NYK1).
T1 construct: host or cells: HEK-Blue cells (HEK293-derived reporter line)
T1 sequence (Q9NYK1 27-1049): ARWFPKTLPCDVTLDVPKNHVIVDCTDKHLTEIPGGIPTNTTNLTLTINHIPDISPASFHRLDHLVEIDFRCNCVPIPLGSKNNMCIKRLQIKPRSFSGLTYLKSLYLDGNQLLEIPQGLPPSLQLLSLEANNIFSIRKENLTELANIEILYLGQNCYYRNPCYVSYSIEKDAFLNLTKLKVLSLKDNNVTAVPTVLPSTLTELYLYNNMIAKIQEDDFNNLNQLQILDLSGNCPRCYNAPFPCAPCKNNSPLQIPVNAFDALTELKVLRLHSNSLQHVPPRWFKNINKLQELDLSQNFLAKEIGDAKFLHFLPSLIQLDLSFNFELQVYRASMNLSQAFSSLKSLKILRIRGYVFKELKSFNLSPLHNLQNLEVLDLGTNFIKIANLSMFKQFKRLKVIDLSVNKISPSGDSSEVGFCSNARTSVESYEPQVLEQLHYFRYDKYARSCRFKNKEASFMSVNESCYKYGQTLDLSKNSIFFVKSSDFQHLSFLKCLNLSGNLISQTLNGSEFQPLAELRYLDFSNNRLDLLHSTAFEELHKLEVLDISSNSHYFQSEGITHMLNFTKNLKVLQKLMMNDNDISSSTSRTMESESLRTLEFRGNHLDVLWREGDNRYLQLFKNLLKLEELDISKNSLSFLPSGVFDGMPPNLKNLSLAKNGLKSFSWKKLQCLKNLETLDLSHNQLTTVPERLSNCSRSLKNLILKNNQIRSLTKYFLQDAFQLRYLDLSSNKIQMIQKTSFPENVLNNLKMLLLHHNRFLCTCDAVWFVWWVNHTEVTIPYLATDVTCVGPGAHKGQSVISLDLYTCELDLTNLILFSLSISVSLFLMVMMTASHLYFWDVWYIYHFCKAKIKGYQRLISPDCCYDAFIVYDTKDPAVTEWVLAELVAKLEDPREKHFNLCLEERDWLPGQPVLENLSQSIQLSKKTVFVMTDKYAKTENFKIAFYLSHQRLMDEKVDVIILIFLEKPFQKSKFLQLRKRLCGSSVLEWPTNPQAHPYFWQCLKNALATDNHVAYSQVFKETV
The assay can be described thus: TLR7 inhibition reporter assay (HEK-Blue SEAP). As to conditions: HEK-Blue cells overexpressing human TLR7, gardiquimod 7.5 μM, 22 hour incubation. On the procedure: (§1) TLR7/8/9 Inhibition Reporter Assays
(§2) HEK-Blue™-cells (Invivogen) overexpressing human TLR7, TLR8 or TLR9 receptors were used for screening inhibitors of these receptors using an inducible SEAP (secreted embryonic alkaline phosphatase) reporter gene under the control of the IFN-β minimal promoter fused to five NF-κB and AP-1-binding sites. Briefly, cells are seeded into Greiner 384 well plates (15000 cells per well for TLR7, 20,000 for TLR8 and 25,000 for TLR9) and then treated with test compounds in DMSO to yield a final dose response concentration range of 0.05 nM-50 μM. After a 30 minute compound pre-treatment at room temperature, the cells are then stimulated with a TLR7 ligand (gardiquimod at a final concentration of 7.5 μM), TLR8 ligand (R848 at a final concentration of 15.9 μM) or TLR9 ligand (ODN2006 at a final concentration of 5 nM) to activate NF-κB and AP-1 which induce the production of SEAP. After a 22 hour incubation at 37° C., 5% CO2, SEAP levels are determined with the addition of HEK-Blue™ Detection reagent (Invivogen), a cell culture medium that allows for detection of SEAP, according to manufacturer's specifications. The percent inhibition is determined as the % reduction in the HEK-Blue signal present in wells treated with agonist plus DMSO alone compared to wells treated with a known inhibitor.
A general note: In a reporter assay the amount or activity of a reporter protein is the signal.

The target of the next assay is T2, human TLR9 (Homo sapiens, UniProt Q9NR96).
T2 construct: host or cells: HEK-Blue cells (HEK293-derived reporter line)
T2 sequence (Q9NR96 26-1032): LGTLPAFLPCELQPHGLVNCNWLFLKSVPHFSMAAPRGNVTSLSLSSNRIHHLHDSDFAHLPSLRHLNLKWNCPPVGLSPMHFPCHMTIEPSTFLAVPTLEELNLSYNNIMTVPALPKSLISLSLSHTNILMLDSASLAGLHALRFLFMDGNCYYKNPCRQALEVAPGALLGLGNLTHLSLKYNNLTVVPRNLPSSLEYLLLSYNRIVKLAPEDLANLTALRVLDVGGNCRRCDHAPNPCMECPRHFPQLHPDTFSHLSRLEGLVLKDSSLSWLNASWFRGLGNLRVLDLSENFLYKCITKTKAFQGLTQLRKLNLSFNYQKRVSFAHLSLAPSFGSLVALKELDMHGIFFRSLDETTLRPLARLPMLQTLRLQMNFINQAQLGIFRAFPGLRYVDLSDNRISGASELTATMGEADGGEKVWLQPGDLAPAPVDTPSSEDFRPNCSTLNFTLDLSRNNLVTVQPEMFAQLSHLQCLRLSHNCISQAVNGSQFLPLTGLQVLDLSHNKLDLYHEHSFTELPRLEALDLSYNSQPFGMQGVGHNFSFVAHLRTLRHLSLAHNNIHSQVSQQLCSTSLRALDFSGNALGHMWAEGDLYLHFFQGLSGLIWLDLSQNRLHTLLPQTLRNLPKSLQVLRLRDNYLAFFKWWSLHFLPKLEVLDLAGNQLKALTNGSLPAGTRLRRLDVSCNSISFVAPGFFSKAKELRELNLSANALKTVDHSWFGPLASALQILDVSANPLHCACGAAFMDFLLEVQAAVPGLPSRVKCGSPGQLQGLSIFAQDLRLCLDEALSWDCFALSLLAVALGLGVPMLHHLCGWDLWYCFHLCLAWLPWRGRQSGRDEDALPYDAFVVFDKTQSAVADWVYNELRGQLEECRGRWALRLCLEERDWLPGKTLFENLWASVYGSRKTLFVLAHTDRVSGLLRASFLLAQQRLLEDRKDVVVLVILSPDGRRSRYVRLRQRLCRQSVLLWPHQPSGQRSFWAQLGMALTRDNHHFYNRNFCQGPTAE
As to the kind of experiment: TLR9 inhibition reporter assay (HEK-Blue SEAP). Particulars: HEK-Blue cells overexpressing human TLR9, ODN2006 5 nM, 22 hour incubation. The protocol:
as §1, §2

A further assay addresses T3, human TLR8 (Homo sapiens, UniProt Q9NR97).
T3 construct: host or cells: HEK-Blue cells (HEK293-derived reporter line)
T3 sequence (Q9NR97 27-1041): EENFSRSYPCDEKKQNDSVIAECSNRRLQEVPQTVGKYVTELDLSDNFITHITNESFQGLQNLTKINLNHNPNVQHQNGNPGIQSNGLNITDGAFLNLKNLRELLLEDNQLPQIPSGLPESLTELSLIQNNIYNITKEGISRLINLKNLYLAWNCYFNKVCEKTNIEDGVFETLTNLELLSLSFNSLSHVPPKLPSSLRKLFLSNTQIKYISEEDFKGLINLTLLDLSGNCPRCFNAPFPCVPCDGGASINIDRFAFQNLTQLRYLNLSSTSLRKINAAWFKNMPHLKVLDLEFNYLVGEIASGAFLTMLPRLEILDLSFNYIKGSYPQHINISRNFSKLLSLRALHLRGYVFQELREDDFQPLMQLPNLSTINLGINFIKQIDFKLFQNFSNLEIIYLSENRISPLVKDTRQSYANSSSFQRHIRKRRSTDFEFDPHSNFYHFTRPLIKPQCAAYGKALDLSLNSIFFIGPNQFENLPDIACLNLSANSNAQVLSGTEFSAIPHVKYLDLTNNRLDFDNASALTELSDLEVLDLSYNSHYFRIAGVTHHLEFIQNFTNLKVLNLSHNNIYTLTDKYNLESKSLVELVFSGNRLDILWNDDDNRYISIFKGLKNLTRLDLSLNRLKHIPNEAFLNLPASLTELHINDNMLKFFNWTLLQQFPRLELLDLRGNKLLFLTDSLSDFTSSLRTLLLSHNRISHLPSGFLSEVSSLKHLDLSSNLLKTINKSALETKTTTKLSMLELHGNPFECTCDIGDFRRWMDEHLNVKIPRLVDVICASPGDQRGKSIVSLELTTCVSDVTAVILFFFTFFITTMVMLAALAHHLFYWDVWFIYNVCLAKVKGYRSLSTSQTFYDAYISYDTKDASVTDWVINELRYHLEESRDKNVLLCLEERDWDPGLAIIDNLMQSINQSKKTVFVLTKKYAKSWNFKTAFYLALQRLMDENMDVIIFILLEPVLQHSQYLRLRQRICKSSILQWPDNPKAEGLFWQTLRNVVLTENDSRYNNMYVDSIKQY
The assay can be described thus: TLR8 inhibition reporter assay (HEK-Blue SEAP). As to conditions: HEK-Blue cells overexpressing human TLR8, R848 15.9 μM, 22 hour incubation. The protocol: as §1, §2

`COc1cc(-c2[nH]c3ccc(C4CCN(CCNC(=O)CCCCCCCC(=O)NCCN5CCC(c6ccc7[nH]c(-c8cc(OC)c9ncnn9c8)c(C(C)C)c7c6)CC5)CC4)cc3c2C(C)C)cn2ncnc12` [Example 5, N1,N9-bis(2-(4-(3-isopropyl-2-(8-methoxy-[1,2,4]triazolo[1,5-a]pyridin-6-yl)-1H-indol-5-yl)piperidin-1-yl)ethyl)nonanediamide]: the IC50 was 0.15 nM at human TLR7, 140 nM against human TLR9 and 0.18 nM against human TLR8.

Take `COc1cc(-c2[nH]c3ccc(C4CCN(CCNC(=O)CCCCCCC(=O)NCCN5CCC(c6ccc7[nH]c(-c8cc(OC)c9ncnn9c8)c(C(C)C)c7c6)CC5)CC4)cc3c2C(C)C)cn2ncnc12` [Example 6, N1,N8-bis(2-(4-(3-isopropyl-2-(8-methoxy-[1,2,4]triazolo[1,5-a]pyridin-6-yl)-1H-indol-5-yl)piperidin-1-yl)ethyl)octanediamide]: the IC50 at human TLR7 amounted to 0.17 nM; against human TLR9 it was 148 nM; at human TLR8, 0.2 nM.

For `COc1cc(-c2[nH]c3ccc(C4CCN(CCNC(=O)CCCCCCCCC(=O)NCCN5CCC(c6ccc7[nH]c(-c8cc(OC)c9ncnn9c8)c(C(C)C)c7c6)CC5)CC4)cc3c2C(C)C)cn2ncnc12` [Example 7, N1,N10-bis(2-(4-(3-isopropyl-2-(8-methoxy-[1,2,4]triazolo[1,5-a]pyridin-6-yl)-1H-indol-5-yl)piperidin-1-yl)ethyl)decanediamide], the IC50 at human TLR7 stood at 0.14 nM; against human TLR9, 98 nM; against human TLR8 it was 0.24 nM.

On to `COc1cc(-c2[nH]c3ccc(C4CCN(CCNC(=O)CCCCCC(=O)NCCN5CCC(c6ccc7[nH]c(-c8cc(OC)c9ncnn9c8)c(C(C)C)c7c6)CC5)CC4)cc3c2C(C)C)cn2ncnc12` [Example 8, N1,N7-bis(2-(4-(3-isopropyl-2-(8-methoxy-[1,2,4]triazolo[1,5-a]pyridin-6-yl)-1H-indol-5-yl)piperidin-1-yl)ethyl)heptanediamide], for which the IC50 on human TLR7 is 0.19 nM; at human TLR9, 175 nM; on human TLR8 it was 0.28 nM.

`COc1cc(-c2[nH]c3ccc(C4CCN(CCNC(=O)CCCCC(=O)NCCN5CCC(c6ccc7[nH]c(-c8cc(OC)c9ncnn9c8)c(C(C)C)c7c6)CC5)CC4)cc3c2C(C)C)cn2ncnc12` [Example 9, N1,N6-bis(2-(4-(3-isopropyl-2-(8-methoxy-[1,2,4]triazolo[1,5-a]pyridin-6-yl)-1H-indol-5-yl)piperidin-1-yl)ethyl)adipamide]: the values for the IC50 at human TLR7, against human TLR9 and at human TLR8 were 0.19 nM, 348 nM and 0.59 nM, respectively.

`COc1cc(-c2[nH]c3ccc(C4CCN(CCNC(=O)CCC(=O)NCCN5CCC(c6ccc7[nH]c(-c8cc(OC)c9ncnn9c8)c(C(C)C)c7c6)CC5)CC4)cc3c2C(C)C)cn2ncnc12` [Example 11, N1,N4-bis(2-(4-(3-isopropyl-2-(8-methoxy-[1,2,4]triazolo[1,5-a]pyridin-6-yl)-1H-indol-5-yl)piperidin-1-yl)ethyl)succinamide]: the half-inhibitory concentration (IC50) is 17 nM on human TLR7, 4600 nM against human TLR9 and 143 nM at human TLR8.

For `COc1cc(-c2[nH]c3ccc(C4CCN(CCCCCCCCCCCCCCCCCCN5CCC(c6ccc7[nH]c(-c8cc(OC)c9ncnn9c8)c(C(C)C)c7c6)CC5)CC4)cc3c2C(C)C)cn2ncnc12` [Example 12, 1,18-bis(4-(3-isopropyl-2-(8-methoxy-[1,2,4]triazolo[1,5-a]pyridin-6-yl)-1H-indol-5-yl)piperidin-1-yl)octadecane], the IC50 on human TLR7 amounted to 191 nM; against human TLR9 it was 13400 nM; against human TLR8 it was 509 nM.

For the compound “N1,N12-bis(2-(4-(3-isopropyl-2-(8-methoxy-[1,2,4]triazolo[1,5-a]pyridin-6-yl)-1H-indol-5-yl)piperidin-1-yl)ethyl)dodecanediamide [Example 10]”, the IC50 at human TLR7 came out at 1.3 nM; against human TLR9, 44 nM; against human TLR8, 1.1 nM.
